Reference: publication PMC7558535, “In Vitro Metabolism of DWP16001, a Novel Sodium-Glucose Cotransporter 2 Inhibitor, in Human and Animal Hepatocytes” (Pharmaceutics, 2020)
Where two headings read alike, the source gives them in different places.

How the values were obtained:
[1] = tested on: 13 human UGT enzymes; assay: UGT screening, whole panel; format: in vitro ADME; conditions: incubation of M1 with 13 human UGT enzymes and UDPGA
Method: To screen for UGT enzymes responsible for glucuronidation of DWP16001, 100 μL of reaction mixtures containing 13 human cDNA-expressed UGT enzymes (1A1, 1A3, 1A4, 1A6, 1A7, 1A8, 1A9, 1A10, 2B4, 2B7, 2B10, 2B15, and 2B17) at 0.1 mg protein/mL, 5 mM UDPGA, 0.025 mg/mL alamethicin, and 25 μM DWP16001 or M1 in 50 mM Tris buffer (pH 7.4) were incubated at 37 °C for 30 min in triplicate. Reactions were stopped by adding 100 μL of ketoconazole (internal standard, 200 ng/mL) in acetonitrile, followed by vortex-mixing and centrifugation (15,000× g, 8 min, 4 °C). The supernatant (75 μL) was diluted with equal volume of 30% acetonitrile and aliquots (5 μL) were injected into an LC-MS/MS system.

[2] = tested on: 11 human CYP enzymes; assay: CYP screening, whole panel; format: in vitro ADME
Method: DWP16001, M1, or M2 was incubated with 11 human cDNA-expressed CYP enzymes (1A1, 1A2, 2A6, 2B6, 2C8, 2C9, 2C19, 2D6, 2E1, 3A4, and 3A5) to identify the CYP enzymes involved in the metabolism of DWP16001. Reaction mixtures of 95 µL containing DWP16001 (final concentration: 5 µM), M1 or M2 (final concentration: 10 µM), and CYPs (final amount: 10 pmol) were prepared in 0.1 M potassium phosphate buffer (pH 7.4). The reaction was started by adding 5 µL of NADPH-generating system; the mixtures were incubated for 30 min at 37 °C in triplicate. Reactions were stopped by the addition of 400 µL of ice-cold ketoconazole (internal standard, 200 ng/mL) in ice-cold acetonitrile. Samples were centrifuged at 15,000× g for 8 min at 4 °C. Seventy-five microliter aliquots of the supernatants were diluted with 75 µL of deionized water and analyzed using an LC–MS/MS system.

[3] = cited from earlier work
[4] = human; cited from earlier work
[5] = tested on: human hepatocytes; conditions: cited from earlier work
[6] = human, cited from earlier work
[7] = tested on: SGLT2; design: method as in PMID 32183468; conditions: read-out: IC50 (SGLT2 inhibition); cited from earlier work

## OC[C@H]1O[C@@H](c2cc(Cc3ccc(C4CC4)cc3)c(Cl)c3c2CC(O)O3)[C@H](O)[C@@H](O)[C@@H]1O (stereo partly drawn) [M1, (2S,3R,4R,5S,6R)-2-(7-chloro-6-(4-cyclopropylbenzyl)-2-hydroxy-2,3-dihydrobenzofuran-4-yl)-6-(hydroxymethyl)tetrahydro-2H-pyran-3,4,5-triol]
[1]
  Formation of M1 glucuronides U4 and U5 from M1: not formed
[2]; incubation of M1 with 11 human CYP enzymes and NADPH
  Formation of M4 from M1: not detected

## OC[C@H]1O[C@@H](c2cc(Cc3ccc(C4(O)CC4)cc3)c(Cl)c3c2CCO3)[C@H](O)[C@@H](O)[C@@H]1O [M2, (2S,3R,4R,5S,6R)-2-(7-chloro-6-(4-(1-hydroxycyclopropyl)benzyl)-2,3-dihydrobenzofuran-4-yl)-6-(hydroxymethyl)tetrahydro-2H-pyran-3,4,5-triol]
[2]; incubation of M2 with 11 human CYP enzymes and NADPH
  Formation of M5 from M2: not detected

## Cc1ccc([C@@H]2O[C@H](CO)[C@@H](O)[C@H](O)[C@H]2O)cc1Cc1ccc(-c2ccc(F)cc2)s1 [canagliflozin]
[3]; glyburide, metformin, and simvastatin
  Drug interaction on co-administration: did not cause significant drug interactions
[3]; human, cyclosporine A 400 mg
  Increase of AUC: 23%
[3]; human, probenecid 500 mg twice per day for 3 days
  Increase of AUC: 20.7%
[3]; human, repeated rifampin 600 mg/day for 8 days
  Decrease of AUC: 48.7%

## CCOc1ccc(Cc2cc([C@@H]3O[C@H](CO)[C@@H](O)[C@H](O)[C@H]3O)ccc2Cl)cc1 [dapagliflozin]
[4]
  Share of oxidative metabolism (CYP2D6, CYP3A4, CYP2C9 etc.) in metabolism: less than 10%
[5]
  Hepatic extraction: low
[6]; pretreatment with mefenamic acid 250 mg every 6 h for 5 days
  Increase of AUC: 50%
[6]; repeated rifampin 600 mg/day for 6 days
  Decrease of AUC: 22%

## OC[C@H]1O[C@@H](c2ccc(F)c(Cc3cc4ccccc4s3)c2)[C@H](O)[C@@H](O)[C@@H]1O [ipragliflozin]
[7]
  IC50: 8.9 ± 1.7 nM
